The values below come from article PMC11756168, “Drug-drug interaction between ensitrelvir and tacrolimus in a patient undergoing treatment for COVID-19: a case report” (Journal of Pharmaceutical Health Care and Sciences, 2025).

The subject of data set [1] is SARS-CoV-2. Briefly: SARS-CoV2 PCR cycle threshold (Ct) in the patient. The data set is classed as in vivo. The method, then:
On the day of admission, the patient was started on a five-day course of remdesivir (200 mg IV once, followed by 100 mg IV every 24 h for 4 days). The patient was also administered corticosteroid (day -30 to -21, dexamethasone 6 mg PO, once daily after breakfast; day -20 to -17, prednisolone 30 mg PO, once daily after breakfast). On day -23, baricitinib (2 mg PO, once daily after breakfast for 6 days) was administered. On day -17, methylprednisolone (1,000 mg IV, once daily for 5 days) was administered, followed by dexamethasone (6 mg IV, once daily after breakfast). The cycle threshold (Ct) value from the SARS-CoV2 PCR after treatment ([…]) was 25.73, indicating persistent viral presence; therefore, a second five-day course of remdesivir was administered. On day -13, tocilizumab (360 mg IV, once daily) was administered. […] Consequently, a third course of remdesivir was initiated on day -2 (200 mg IV once, followed by 100 mg IV daily for 9 days). On day 0, the patient was started on ensitrelvir treatment (375 mg PO once, followed by 125 mg PO for 4 days) in combination with remdesivir. At the time of the start of ensitrelvir therapy (day 0), the patient was taking the following medications: TAC (1.5 mg PO, once daily after dinner), dexamethasone (6 mg IV, once daily), sulfamethoxazole/trimethoprim (400 mg/80 mg PO, once daily after breakfast), rosuvastatin (5 mg PO, once daily after breakfast), nicorandil (5 mg PO, 3 times daily after meals), aspirin (100 mg PO, once daily after breakfast), esomeprazole (20 mg PO, once daily after breakfast), rivastigmine patch (18 mg, once daily), and subcutaneous denosumab (60 mg, every six months). The patient had received a COVID-19 vaccine approximately one year ago. The patient had no supplements or over-the-counter drugs. Grapefruit was not offered during the hospital stay. Before the start of ensitrelvir therapy, a clinical pharmacist informed the attending physician regarding the potential DDI between ensitrelvir and TAC or rosuvastatin (BCRP substrate) and recommended avoiding the concomitant use. Consequently, TAC was discontinued from the day before the start of ensitrelvir (day -1), and TAC blood levels were frequently monitored using a Siemens Dimension EXL200 with Flex Cartridge Tacrolimus (ACMIA method, Siemens). Rosuvastatin treatment was discontinued on day 0. Given that ensitrelvir is metabolized by CYP3A [17], dexamethasone, which reportedly induces CYP3A [18], was replaced with methylprednisolone on day 1.

Data set [2] can be described thus: One-compartment calculation of TAC elimination half-life from consecutive blood levels. The data set is classed as in vivo. The following applies: human, po, 1.5 mg, read-out: calculated t1/2 of TAC (converted). The method, then:
Assuming a one-compartment model, the elimination rate constant (ke), elimination half-life (t1/2), and maximum plasma concentration (Cmax) of TAC were calculated as follows: ke=lnC1/C2/T2-T1
(§1) t1/2=0.693/ke Cmax=Ctrough+F*Dose/Vd
(§2) where C1 and C2 represent the TAC blood levels at times T1 and T2 in the same dosing interval (T2 > T1), respectively. Ctrough represents TAC blood levels immediately before administration and dose represents the TAC dose. The volume of distribution (Vd) was assumed to be 42 L (1 L/kg based on a body weight of 42 kg). If the Ctrough was unavailable, Ctrough was estimated using ke.

Data set [3] can be described thus: TAC blood level monitoring (Siemens Dimension EXL200, ACMIA method) in the patient. The following applies: human.
Data set [4] is described as follows: One-compartment simulation of TAC levels with various F values. The following applies: for half-life: human, blood, oral, read-out: Estimated TAC half-life (converted). Details: species or system human.
Excerpt: as §1, §2
Next, we evaluated the duration of DDI using ensitrelvir. […] Consequently, when F was set to 0.125, the simulated TAC levels matched the measured levels at 7:00 on day 8 (Supplemental Table S1). The estimated F value of TAC (0.125) was similar to that reported in a previous report (0.25 ± 0.20), which indicates the limited effect of ensitrelvir on the intestinal absorption of TAC. […] These pharmacokinetic analyses indicate that the DDI effect of ensitrelvir gradually diminishes over 7–10 days after its discontinuation. […] Therefore, caution regarding DDI with ensitrelvir should be exercised for 7–10 days after discontinuation of ensitrelvir. Furthermore, in the case of irreversible CYP3A inhibition, the timing of CYP3A expression recovery varies among individuals. Therefore, TAC after ensitrelvir treatment should be restarted at a reduced dosage and its blood levels should be closely monitored.
^a The tacrolimus level was estimated using a one-compartment pharmacokinetics model for oral administration, without considering the absorption rate constant. For tacrolimus levels after day 8, only values predicted with F = 0.125 are shown.

The nature of data set [5]: Laboratory parameters (Scr, ALT) in the patient. The data set is classed as in vivo, human.
For data set [6] the following is noted: cited from earlier work.
A short description of data set [7]: Pharmacokinetics of TAC (literature). The data set is classed as in vivo. The following applies: human, blood; assumed, 1 L/kg at body weight 42 kg; read-out: volume of distribution (Vd) of TAC.
For data set [8], the system named is P-glycoprotein (P-gp). Further details: method as in PMID 37043676, PMID 37171749. Particulars: cited from earlier work.
For data set [9] the following is noted: cited from earlier work. The source holds these as a separate data set.
The subject of data set [10] is CYP3A.
The nature of data set [11]: CT imaging of the lungs in the patient. The data set is classed as in vivo, human. The following applies: day 18, after ensitrelvir in combination with remdesivir.
Data set [12] has as its system Cytochrome P450 3A (CYP3A). Particulars: cited from earlier work.
The test system of data set [13] is P-gp. Further details: method as in PMID 37043676. Particulars: cited from earlier work.
The nature of data set [14]: Pharmacokinetics of ensitrelvir (literature). It counts as in vivo, human. Particulars: suggested from t1/2 51.4 h.
Data set [15] concerns CYP3A and P-gp. Particulars: cited from earlier work.
For data set [16], the system named is breast cancer resistance protein (BCRP). Details: method as in PMID 37043676, PMID 37171749. The following applies: cited from earlier work.
Data set [17] has as its system CYP3A. The following applies: ensitrelvir co-administration; cited from earlier work.

SMILES strings stand for the structures. Entries after “also recorded” stand apart in the source; their conditions may differ.

As for `CCC(CC)COC(=O)[C@H](C)N[P@](=O)(OC[C@H]1O[C@@](C#N)(c2ccc3c(N)ncnn23)[C@H](O)[C@@H]1O)Oc1ccccc1` [remdesivir], the “SARS-CoV2 PCR Ct value” in data set [1] (after first five-day course of remdesivir, day 15 (so in the source)) came to 25.73; in [1] (day -7, after second five-day course of remdesivir) it was 26.18.

Regarding `C=CC[C@@H]1/C=C(\C)C[C@H](C)C[C@H](OC)[C@H]2O[C@@](O)(C(=O)C(=O)N3CCCC[C@H]3C(=O)O[C@H](/C(C)=C/[C@@H]3CC[C@@H](O)[C@H](OC)C3)[C@H](C)[C@@H](O)CC1=O)[C@H](C)C[C@@H]2OC` [TAC, Tacrolimus], the half-life in [2] (day 0 to 2, under ensitrelvir) was 71.9 h; in data set [2] (day 2 to 5, under ensitrelvir), 115 h; in data set [2] (day -1 to 0, before ensitrelvir), 33.7 h; in data set [4] (1 mg, day 8 to 12, assuming bioavailability 0.125) it was 39.9 h; in [4] (1 mg, day 12 to 14, assuming bioavailability 0.125) it was 23.4 h; in [4] (Day5, 7:00 to Day8, 7:00, hypothesized to continue from days 2-5 until day 8) it was 115 h. Also, the concentration at 11 h in data set [3] (oral) came to 5.1 ng/mL. The concentration at 12 h in data set [3] (oral, 1 mg) is 6.5 ng/mL; in data set [3] (po, 1 mg), 3.9 ng/mL. Besides, the concentration at 20 h in data set [3] (oral, 1 mg) was 3.7 ng/mL. Moreover, the concentration at 21.5 h in data set [3] (oral, 1.5 mg) worked out at 3.6 ng/mL. The compound also gave a concentration at 35.5 h in data set [3] (oral, 1.5 mg) of 2.7 ng/mL. This compound also showed a concentration at 83.5 h in [3] (oral, 1.5 mg) of 1.7 ng/mL. Moreover, the concentration at 155.5 h in data set [3] (oral, 1.5 mg) was 1.1 ng/mL. This compound also showed a concentration at 5 days in data set [3] (oral, 2 mg) of 6.6 ng/mL. The compound also yielded a concentration at 36 h in data set [3] (po, 0.2 mg) of 1 ng/mL. In addition, the “estimated F value of TAC” value in data set [4] (after ensitrelvir administration, simulated levels matched measured level at 7:00 on day 8) is 0.125. Besides, the Scr levels entry in [5] (TAC maintained at 1.5 mg daily, normal range 0.75—1.0 mg/dL) is listed as “within normal range”. The “volume of distribution (Vd) of TAC” value in data set [6] (assumed) is 1 L/kg. For the same compound, in data set [6], the “F value of TAC in a previous report” value is 0.25 ± 0.20. In addition, the “reported t1/2 of TAC” value in data set [6] is recorded as 32 h. For the same compound, the Vd in data set [7] stood at 42 L.

On to `Cn1cnc(Cn2c(=O)[nH]/c(=N\c3cc4cn(C)nc4cc3Cl)n(Cc3cc(F)c(F)cc3F)c2=O)n1` [ensitrelvir, Ensitrelvir], for which the “SARS-CoV-2 PCR Ct value” worked out at 25.88 in data set [1] (day 0, start of ensitrelvir in combination with remdesivir); 30.03 in [1] (day 5, ensitrelvir in combination with remdesivir); 34.36 in [1] (day 12, after ensitrelvir in combination with remdesivir); 34.89 in data set [1] (day 19, after ensitrelvir in combination with remdesivir). Besides, the “inhibition of P-gp” value in data set [8] was “strongly inhibits”. For the same compound, the half-life of ensitrelvir entry in data set [9] is “approximately 50 h”. Further, the “time over which the DDI effect diminished/resolved” value in [10] (after discontinuation of ensitrelvir) was in the range of 7 to 10 days. The “increase in the AUC of TAC by inhibition of CYP3A in the liver” value in [10] (inferred from t1/2 prolongation) is “threefold increase”. The “CT imaging of lung fields” value in data set [11] is on record as “improved inflammation in both lung fields”. In addition, in [12], the “inhibition of CYP3A” value is listed as “strongly inhibits”. Further, the “manner of CYP3A inhibition” value in data set [12] is “time-dependent and irreversible manner”. In data set [13], the “effect on AUC of digoxin (P-gp substrate)” value is on record as “increased the AUC of digoxin”. The “time required to clear ensitrelvir from the body” value in data set [14] lay in the range of 7 to 8 days. The “increase in TAC trough/blood levels with concurrent ensitrelvir” value in data set [15] is listed as “approximately threefold; also recorded: approximate three-fold increase”. Moreover, in [5] (during ensitrelvir treatment), the Scr level entry is on record as “remained within normal ranges”. The “alanine aminotransferase (ALT) level” value in data set [5] (during ensitrelvir treatment) was “remained within normal ranges”. Besides, the “inhibition of BCRP” value in data set [16] is listed as “strongly inhibits”. Besides, the “increase of AUC of midazolam” value in data set [17] was 6.7 fold. The “increase of t1/2 of midazolam” value in data set [17] is given as 2.3 fold.

Broadly, the Vd is the apparent volume that relates the amount in the body to the concentration in plasma or blood.
